Source: patent US12139520B2 (priority 2020, dated 2024)
Numbered stars: 1 amine (or outer) side, 2 acyl side, 3 side chain; on linkers, the order of the positions; unused ones are H or OH. Bridge positions count the residues as written; N and C are the ends. Square brackets hold non-standard residues; d marks the D form. Peptide text beside a SMILES is read from it. * marks the point of attachment. C20 diacid = O=C(O)CCCCCCCCCCCCCCCCCCC(=O)*; γGlu = O=C(O)[C@H](CCC(=O)[*:2])N[*:1]; Hyp = O=C(O)[C@@H]1C[C@@H](O)CN1

Biological target: T1, hAMY3 receptor (Homo sapiens, UniProt O60896+P30988)
T1 sequence (P30988 25-474): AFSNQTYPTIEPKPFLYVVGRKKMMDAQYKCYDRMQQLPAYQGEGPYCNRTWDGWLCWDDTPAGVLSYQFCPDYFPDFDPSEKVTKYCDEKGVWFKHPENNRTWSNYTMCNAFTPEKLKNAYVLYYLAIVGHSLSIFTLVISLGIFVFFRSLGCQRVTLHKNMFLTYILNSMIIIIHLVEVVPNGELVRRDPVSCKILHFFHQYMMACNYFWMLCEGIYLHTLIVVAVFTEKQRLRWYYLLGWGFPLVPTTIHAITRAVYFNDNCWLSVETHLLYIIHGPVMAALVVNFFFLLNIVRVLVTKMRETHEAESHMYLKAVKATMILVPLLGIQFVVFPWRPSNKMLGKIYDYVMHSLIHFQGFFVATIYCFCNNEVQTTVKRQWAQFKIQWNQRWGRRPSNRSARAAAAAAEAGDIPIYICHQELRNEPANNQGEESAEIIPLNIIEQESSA
T1 sequence (O60896 24-148 partner): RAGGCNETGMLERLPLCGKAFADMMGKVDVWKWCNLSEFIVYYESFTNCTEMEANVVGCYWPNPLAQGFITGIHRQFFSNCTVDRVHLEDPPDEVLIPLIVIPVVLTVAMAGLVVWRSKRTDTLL
Experiment: cAMP assay for in vitro receptor activation, hAMY3-R
Type: cell-based
Settings: cAMP assay, hAMY3 receptor; read-out: hAMY3R EC50
Procedure, shortened: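 Read-out is TR-FRET cAMP signal, recorded one hour after reagent addition, following 30 min room-temperature stimulation of stable hAMY3 cells with graded compound doses in casein/IBMX (0.5 mM) buffer.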

EC50	Structure (SMILES)
0.013 nM	CC[C@H](C)[C@H](NC(=O)[C@H](CCC(N)=O)NC(=O)[C@H](Cc1c[nH]cn1)NC(=O)[C@H](C)NC(=O)[C@H](CC(C)C)NC(=O)[C@H](CCCNC(=N)N)NC(=O)[C@H](CCC(N)=O)NC(=O)[C@@H](NC(=O)[C@@H](NC(=O)[C@@H]1CSSC[C@H](NC(=O)[C@H](CCCCN)NC(=O)CC[C@H](NC(=O)CCCCCCCCCCCCCCCCCCC(=O)O)C(=O)O)C(=O)N[C@@H](CC(N)=O)C(=O)N[C@@H](Cc2ccccc2)C(=O)N[C@@H](C)C(=O)N[C@@H]([C@@H](C)O)C(=O)N1)[C@@H](C)O)C(C)C)C(=O)N[C@@H](Cc1ccc(O)cc1)C(=O)N[C@@H](CCC(N)=O)C(=O)N[C@@H](Cc1ccccc1)C(=O)N[C@H](C(=O)N[C@@H](CC(=O)O)C(=O)N[C@@H](CCCCN)C(=O)N[C@@H](CC(=O)O)C(=O)N[C@@H](CCCCN)C(=O)N[C@@H](CC(=O)O)C(=O)N[C@@H](CC(N)=O)C(=O)N[C@H](C(=O)N[C@@H](C)C(=O)N1CCC[C@H]1C(=O)N1CCC[C@H]1C(=O)N[C@H](C(=O)N[C@@H](CCC(=O)O)C(=O)N[C@H](C(=O)NCC(=O)N[C@@H](CO)C(=O)N[C@@H](CC(N)=O)C(=O)NCC(=O)N1C[C@H](O)C[C@H]1C(N)=O)C(C)C)[C@@H](C)O)C(C)C)[C@@H](C)O [compound 68] ({C20 diacid-γGlu}-KCNFATCTVQRLAHQIYQFTDKDKDNVAPPTEVGSNG[Hyp]-NH2; disulfide 2-7)
0.008 nM	CC[C@H](C)[C@H](NC(=O)[C@H](CCC(N)=O)NC(=O)[C@H](Cc1c[nH]cn1)NC(=O)[C@H](C)NC(=O)[C@H](CC(C)C)NC(=O)[C@H](CCCNC(=N)N)NC(=O)[C@H](CCC(N)=O)NC(=O)[C@@H](NC(=O)[C@@H](NC(=O)[C@@H]1CSSC[C@H](NC(=O)[C@@H](N)CCCCN)C(=O)N[C@@H](CC(N)=O)C(=O)N[C@@H](Cc2ccccc2)C(=O)N[C@@H](C)C(=O)N[C@@H]([C@@H](C)O)C(=O)N1)[C@@H](C)O)C(C)C)C(=O)N[C@@H](Cc1ccc(O)cc1)C(=O)N[C@@H](CCC(N)=O)C(=O)N[C@@H](Cc1ccccc1)C(=O)N[C@H](C(=O)N[C@@H](CC(=O)O)C(=O)N[C@@H](CCCCN)C(=O)N[C@@H](CC(=O)O)C(=O)N[C@@H](CCCCN)C(=O)N[C@@H](CC(=O)O)C(=O)N[C@@H](CC(N)=O)C(=O)N[C@H](C(=O)N[C@@H](C)C(=O)N1CCC[C@H]1C(=O)N1CCC[C@H]1C(=O)N[C@H](C(=O)N[C@@H](CCC(=O)O)C(=O)N[C@H](C(=O)NCC(=O)N[C@@H](CO)C(=O)N[C@@H](CC(N)=O)C(=O)NCC(=O)N1CCC[C@H]1C(N)=O)C(C)C)[C@@H](C)O)C(C)C)[C@@H](C)O [compound 18] (H-KCNFATCTVQRLAHQIYQFTDKDKDNVAPPTEVGSNGP-NH2; disulfide 2-7)
0.041 nM	CC[C@H](C)[C@H](NC(=O)[C@H](CC(N)=O)NC(=O)[C@H](CO)NC(=O)[C@H](CCCNC(=N)N)NC(=O)[C@@H]1CCCN1C(=O)[C@H](C)NC(=O)[C@@H](NC(=O)[C@H](CC(N)=O)NC(=O)[C@H](CC(=O)O)NC(=O)[C@H](CCCCN)NC(=O)[C@H](CC(=O)O)NC(=O)[C@H](CCCCN)NC(=O)[C@H](CC(=O)O)NC(=O)[C@@H](NC(=O)[C@H](Cc1ccccc1)NC(=O)[C@H](CCC(N)=O)NC(=O)[C@H](Cc1ccc(O)cc1)NC(=O)[C@@H](NC(=O)[C@H](CCC(N)=O)NC(=O)[C@H](Cc1c[nH]cn1)NC(=O)[C@H](C)NC(=O)[C@H](CC(C)C)NC(=O)[C@H](CCCNC(=N)N)NC(=O)[C@H](CCC(N)=O)NC(=O)[C@@H](NC(=O)[C@@H](NC(=O)[C@@H]1CSSC[C@H](NC(=O)CN)C(=O)N[C@@H](CCCNC(=N)N)C(=O)N[C@@H]([C@@H](C)O)C(=O)NCC(=O)N[C@@H]([C@@H](C)O)C(=O)N1)[C@@H](C)O)C(C)C)[C@@H](C)CC)[C@@H](C)O)C(C)C)C(=O)NCC(=O)N1CCC[C@H]1C(=O)N[C@@H](CC(N)=O)C(=O)NCC(=O)N1C[C@H](O)C[C@H]1C(N)=O [compound 151] (H-GCRTGTCTVQRLAHQIYQFTDKDKDNVAPRSNIGPNG[Hyp]-NH2; disulfide 2-7; N-terminus assumed)
0.063 nM	CC[C@H](C)[C@H](NC(=O)[C@H](CCC(N)=O)NC(=O)[C@H](Cc1c[nH]cn1)NC(=O)[C@H](C)NC(=O)[C@H](CC(C)C)NC(=O)[C@H](CCCNC(=N)N)NC(=O)[C@H](CCC(N)=O)NC(=O)[C@@H](NC(=O)[C@@H](NC(=O)[C@@H]1CSSC[C@H](NC(=O)CN)C(=O)N[C@@H](CCCNC(=N)N)C(=O)N[C@@H](Cc2ccccc2)C(=O)NCC(=O)N[C@@H]([C@@H](C)O)C(=O)N1)[C@@H](C)O)C(C)C)C(=O)N[C@@H](Cc1ccc(O)cc1)C(=O)N[C@@H](CCC(N)=O)C(=O)N[C@@H](Cc1ccccc1)C(=O)N[C@H](C(=O)N[C@@H](CC(=O)O)C(=O)N[C@@H](CCCCN)C(=O)N[C@@H](CC(=O)O)C(=O)N[C@@H](CCCCN)C(=O)N[C@@H](CC(=O)O)C(=O)N[C@@H](CC(N)=O)C(=O)N[C@H](C(=O)N[C@@H](C)C(=O)N1CCC[C@H]1C(=O)N[C@@H](CCCNC(=N)N)C(=O)N[C@@H](CO)C(=O)N[C@@H](CCCCN)C(=O)N[C@H](C(=O)N[C@@H](CO)C(=O)N1CCC[C@H]1C(=O)N[C@@H](CCC(N)=O)C(=O)NCC(=O)N1C[C@H](O)C[C@H]1C(N)=O)[C@@H](C)CC)C(C)C)[C@@H](C)O [compound 169] (H-GCRFGTCTVQRLAHQIYQFTDKDKDNVAPRSKISPQG[Hyp]-NH2; disulfide 2-7; N-terminus assumed)
0.017 nM	CC[C@H](C)[C@H](NC(=O)[C@H](CCC(N)=O)NC(=O)[C@H](Cc1c[nH]cn1)NC(=O)[C@H](C)NC(=O)[C@H](CC(C)C)NC(=O)[C@H](CCCNC(=N)N)NC(=O)[C@H](CCC(N)=O)NC(=O)[C@@H](NC(=O)[C@@H](NC(=O)[C@@H]1CSSC[C@H](NC(=O)[C@H](CCCCN)NC(=O)CC[C@H](NC(=O)CCCCCCCCCCCCCCCCCCC(=O)O)C(=O)O)C(=O)N[C@@H](CC(N)=O)C(=O)N[C@@H]([C@@H](C)O)C(=O)N[C@@H](C)C(=O)N[C@@H]([C@@H](C)O)C(=O)N1)[C@@H](C)O)C(C)C)C(=O)N[C@@H](Cc1ccc(O)cc1)C(=O)N[C@@H](CCC(N)=O)C(=O)N[C@@H](Cc1ccccc1)C(=O)N[C@H](C(=O)N[C@@H](CC(=O)O)C(=O)N[C@@H](CCCCN)C(=O)N[C@@H](CC(=O)O)C(=O)N[C@@H](CCCCN)C(=O)N[C@@H](CC(=O)O)C(=O)N[C@@H](CC(N)=O)C(=O)N[C@H](C(=O)N[C@@H](C)C(=O)N1CCC[C@H]1C(=O)N[C@@H](CCCNC(=N)N)C(=O)N[C@H](C(=O)N[C@@H](CCCCN)C(=O)N[C@H](C(=O)NCC(=O)N[C@@H](CO)C(=O)N[C@@H](CC(N)=O)C(=O)NCC(=O)N1C[C@H](O)C[C@H]1C(N)=O)C(C)C)[C@@H](C)O)C(C)C)[C@@H](C)O [compound 99] ({C20 diacid-γGlu}-KCNTATCTVQRLAHQIYQFTDKDKDNVAPRTKVGSNG[Hyp]-NH2; disulfide 2-7)
0.036 nM	CC[C@H](C)[C@H](NC(=O)[C@H](CC(N)=O)NC(=O)[C@@H](NC(=O)[C@H](CCCNC(=N)N)NC(=O)[C@@H]1CCCN1C(=O)[C@H](C)NC(=O)[C@@H](NC(=O)[C@H](CC(N)=O)NC(=O)[C@H](CC(=O)O)NC(=O)[C@H](CCCCN)NC(=O)[C@H](CC(=O)O)NC(=O)[C@H](CCCCN)NC(=O)[C@H](CC(=O)O)NC(=O)[C@@H](NC(=O)[C@H](Cc1ccccc1)NC(=O)[C@H](CCC(N)=O)NC(=O)[C@H](Cc1ccc(O)cc1)NC(=O)[C@@H](NC(=O)[C@H](CCC(N)=O)NC(=O)[C@H](Cc1c[nH]cn1)NC(=O)[C@H](C)NC(=O)[C@H](CC(C)C)NC(=O)[C@H](CCCNC(=N)N)NC(=O)[C@H](CCC(N)=O)NC(=O)[C@@H](NC(=O)[C@@H](NC(=O)[C@@H]1CSSC[C@H](NC(=O)CN)C(=O)N[C@@H](CCCNC(=N)N)C(=O)N[C@@H]([C@@H](C)O)C(=O)NCC(=O)N[C@@H]([C@@H](C)O)C(=O)N1)[C@@H](C)O)C(C)C)[C@@H](C)CC)[C@@H](C)O)C(C)C)[C@@H](C)O)C(=O)NCC(=O)N1CCC[C@H]1C(=O)N[C@@H](CC(N)=O)C(=O)NCC(=O)N[C@@H](Cc1ccc(O)cc1)C(N)=O [compound 142] (H-GCRTGTCTVQRLAHQIYQFTDKDKDNVAPRTNIGPNGY-NH2; disulfide 2-7; N-terminus assumed)
0.015 nM	CC[C@H](C)[C@H](NC(=O)[C@H](CCC(N)=O)NC(=O)[C@H](Cc1c[nH]cn1)NC(=O)[C@H](C)NC(=O)[C@H](CC(C)C)NC(=O)[C@H](CCCNC(=N)N)NC(=O)[C@H](CCC(N)=O)NC(=O)[C@@H](NC(=O)[C@@H](NC(=O)[C@@H]1CSSC[C@H](NC(=O)[C@H](CCCCN)NC(=O)CC[C@H](NC(=O)CCCCCCCCCCCCCCCCCCC(=O)O)C(=O)O)C(=O)N[C@@H](CC(N)=O)C(=O)N[C@@H]([C@@H](C)O)C(=O)N[C@@H](C)C(=O)N[C@@H]([C@@H](C)O)C(=O)N1)[C@@H](C)O)C(C)C)C(=O)N[C@@H](Cc1ccc(O)cc1)C(=O)N[C@@H](CCC(N)=O)C(=O)N[C@@H](Cc1ccccc1)C(=O)N[C@@H](C)C(=O)N[C@@H](CC(=O)O)C(=O)N[C@@H](CCCCN)C(=O)N[C@@H](CC(=O)O)C(=O)N[C@@H](CCCCN)C(=O)N[C@@H](CC(=O)O)C(=O)N[C@@H](CC(N)=O)C(=O)N[C@H](C(=O)N[C@@H](C)C(=O)N1CCC[C@H]1C(=O)N1CCC[C@H]1C(=O)N[C@H](C(=O)N[C@@H](CC(N)=O)C(=O)N[C@H](C(=O)NCC(=O)N[C@@H](CO)C(=O)N[C@@H](CC(N)=O)C(=O)NCC(=O)N1C[C@H](O)C[C@H]1C(N)=O)C(C)C)[C@@H](C)O)C(C)C [compound 83] ({C20 diacid-γGlu}-KCNTATCTVQRLAHQIYQFADKDKDNVAPPTNVGSNG[Hyp]-NH2; disulfide 2-7)
